Test results taken from US12099051B2 (priority 2022, dated 2024).
In brackets after ≈: the same amount, converted by molar mass. Several values for one entry are separate records, joined by “and”; a condition that tells them apart may be missing. Equal values may be shown once.

What was measured:
[1] = test system: Caenorhabditis elegans mutant strain Daf-2 (e1370); conditions: in vivo
[2] = test system: Caenorhabditis elegans (N2 wild-type); assay: whole plant or invertebrate; type: in vivo
[3] = test system: Caenorhabditis elegans mutant strain Daf-16 (mu86); conditions: in vivo
[4] = test system: Caenorhabditis elegans; conditions: in vivo
[5] = test system: Caenorhabditis elegans mutant strain Daf-16 (mu86); conditions: in vivo; remark: listed apart in the source
[6] = test system: Caenorhabditis elegans (N2 wild-type); conditions: in vivo
[7] = test system: Caenorhabditis elegans mutant strain Daf-2 (e1370); conditions: in vivo; remark: listed apart in the source

In the case of `O=C1C=C2C(=CCOC2O)O1` (stereo not shown) [PAT, Patulin], the “spawning rate of Daf-2 mutant strain compared with N2” value [1] is reported as “no significant difference from N2”, the EC50 ([2]; Caenorhabditis elegans, 24 h) is reported as 44.2 µg/mL (≈ 287 µM) and the body length ratio ([2]; in vivo) is reported as 64.45% and 55.55%. For the same molecule, the “concentration at which nematode's body length is significantly confined (P<0.001)” value ([2]; in vivo) was 25 µg/mL, the “spawning rate of Daf-16 mutant strain compared with N2 wild-type” value [3] was “higher spawning rate than the N2 wild-type” and the “relative fluorescence intensity ratio (ROS)” value [4] was 136.92% and 149.43%. For the same molecule, the “body length ratio of Daf-16 mutant strain compared with N2 wild type” value [5] was “higher body length ratio than the N2 wild type”, the “concentration at which nematode's spawning rate is significantly confined (P<0.001)” value [6] was 5 µg/mL and the spawning rate [6] was 49.41%. The “effect of Daf-2 gene silencing on developmental toxicity” value [7] was “does not slow down the developmental toxicity”.
